From publication PMC10331583, “Control of fibrosis with enhanced safety via asymmetric inhibition of prolyl‐tRNA synthetase 1” (EMBO Molecular Medicine, 2023)

Tests used:
in vitro [1] = conditions: human, Cytotoxicity
[2] = test system: WI‐26 VA4 cells stably expressing PARS1 FA/EA/RL mutant; conditions: human, 72 h
[3] = test system: WI‐26 VA4 cells stably expressing EV (empty vector); conditions: human, 72 h
in vitro [4] = conditions: human, Cytotoxicity; remark: listed apart in the source
[5] = % of control (single replicates, Experiment #1-#4)

With `O=C(CC1NCCCC1O)Cn1cnc2cc(Br)c(Cl)cc2c1=O` (centres unmarked) [HF, Halofuginone, reference compound] as the compound, how does the activity at 72 h, 0.001 µM (in vitro [1]; [5]) read?
Its activity at 72 h, 0.001 µM is 107%.

And the activity at 72 h, 0.01 µM (in vitro [1]; [5])?
The activity at 72 h, 0.01 µM was 96.3%.

What about the activity at 72 h, 0.03 µM (in vitro [1]; [5]) of the same compound?
The activity at 72 h, 0.03 µM was 71.4%.

What about the activity at 72 h, 0.3 µM (in vitro [1]; [5]) of the same compound?
Its activity at 72 h, 0.3 µM is 34.8%.

What about the activity at 72 h, 0.001 µM (in vitro [1]; % of control, average) of the same compound?
Its activity at 72 h, 0.001 µM is 106%.

And the activity at 72 h, 0.003 µM (in vitro [1]; % of control, average)?
Its activity at 72 h, 0.003 µM is 109%.

What about the activity at 72 h, 0.03 µM (in vitro [1]; % of control, average) of the same compound?
The activity at 72 h, 0.03 µM was 76.1%.

And the activity at 72 h, 0.1 µM (in vitro [1]; % of control, average)?
Its activity at 72 h, 0.1 µM is 41.8%.

What about the activity at 72 h, 1 µM (in vitro [1]; % of control, average) of the same compound?
Its activity at 72 h, 1 µM is 20%.

And the “Cytotoxicity HillSlope (best-fit value)” value [2]?
Its value is -0.8245.

What about the “Cytotoxicity LogIC50 (best-fit value)” value [2] of the same compound?
The value was 1.805.

What about the “TI (CC50/IC50 for collagen level)” value (WI‐26 VA4 cells) of the same compound?
Its value is 3.46.

What about the “Cytotoxicity HillSlope (best-fit value)” value [3] of the same compound?
The value was -0.8001.

And the “Cytotoxicity LogIC50 (best-fit value)” value [3]?
The value was 1.811.

What about the activity at 72 h, 0.1 µM (in vitro [4]; [5]) of the same compound?
Its activity at 72 h, 0.1 µM is 34.2%.

And the activity at 72 h, 0.001 µM (in vitro [4]; % of control, average)?
The activity at 72 h, 0.001 µM was 101%.

What about the activity at 72 h, 0.003 µM (in vitro [4]; % of control, average) of the same compound?
The activity at 72 h, 0.003 µM was 107%.

And the activity at 72 h, 0.03 µM (in vitro [4]; % of control, average)?
The activity at 72 h, 0.03 µM was 73.6%.

What about the activity at 72 h, 0.1 µM (in vitro [4]; % of control, average) of the same compound?
The activity at 72 h, 0.1 µM was 42.5%.

And the activity at 72 h, 1 µM (in vitro [4]; % of control, average)?
Its activity at 72 h, 1 µM is 19.4%.
